SMILES strings stand for the structures. Where “and” joins values, the source holds several entries; their conditions need not be identical. Equal values may be shown once. Where a name gives a salt, the structure may show the parent alone. Read-outs that look alike come from different tables or passages of the source.

Test [1] concerns mouse-acclimated influenza virus A/PR/8/34 strain. On the set-up: species or system mice (BALB/C). The conditions noted are these: in vivo.
Test [2] has the same test system. More on the design: species or system mice (BALB/C). The conditions noted are these: in vivo. This is another data set of the same source.
Test [3] concerns Influenza virus strain A/Yamagata/32189(H1N1). Description: microbe, parasite or virus in culture. Format: cell-based.
The subject of test [4] is mouse-acclimated influenza virus A/PR/8/34 strain. More on the design: species or system mice (BALB/C). The settings on record: in vivo. This is another data set of the same source.
In test [5] the target is crude influenza virus sialidase (Influenza A virus, UniProt P03468). The conditions noted are these: Table 5; absorbance at 415 nm reduced by 50%, pH 6.5, 37° C., 20 minutes.
Sequence of crude influenza virus sialidase (P03468 whole entry, looked up): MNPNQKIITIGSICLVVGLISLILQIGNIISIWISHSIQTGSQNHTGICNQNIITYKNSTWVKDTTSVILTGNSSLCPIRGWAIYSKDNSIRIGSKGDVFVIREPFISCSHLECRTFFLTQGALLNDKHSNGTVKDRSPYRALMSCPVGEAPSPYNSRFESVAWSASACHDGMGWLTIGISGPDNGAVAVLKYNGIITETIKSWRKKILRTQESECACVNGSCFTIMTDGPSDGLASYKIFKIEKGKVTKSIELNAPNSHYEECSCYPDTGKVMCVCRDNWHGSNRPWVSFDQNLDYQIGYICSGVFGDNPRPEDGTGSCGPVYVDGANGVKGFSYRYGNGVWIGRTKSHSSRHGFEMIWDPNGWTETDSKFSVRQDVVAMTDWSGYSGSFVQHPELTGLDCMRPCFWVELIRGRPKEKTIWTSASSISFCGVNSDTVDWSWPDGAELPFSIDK
Experimental: In this experiment, a sample of influenza virus strain A/PR/8/34(H1N1) was dissolved by means of a surfactant, after which the virus membrane fraction was purified by centrifugation.
An enzyme solution was first prepared such that the final enzyme activity was 0.001 1 units/ml (1 unit corresponds to that amount of enzyme which hydrolyzes 1 μmole of substrate in 1 minute). Also prepared beforehand were aqueous solutions of test compound in various concentrations; an aqueous solution of the substrate to a concentration of 33 μg/ml, and a 20 mM 2-(N-morpholino)-ethanesulfonic acid buffer (pH 6.5) containing 50 mM calcium chloride. These solutions were combined to prepare a mixture having a final volume of 150 μl, and which was then left to stand at 37° C. for 20 minutes.

Consider `CCCCCCCCCCCCCCOC(=O)C1=CC(NC(=N)N)C(NC(C)=O)[C@H](C(O)C(O)CO)O1.O=C(O)C(F)(F)F` (stereo partly drawn) [Example 1′, Myristyl 5-acetamido-2,3,4,5-tetradeoxy-4-guanidino-D-glycero-D-galacto-non-2-enopyranosoate trifluoroacetic acid salt], for which, in test [1], the “influenza infection therapeutic effects compared with Compound A” value was “superior to those of Compound A”; the “number of surviving mice divided by the number of test mice, Day 3” value (“number of surviving mice divided … Day 3” for short) is on record as 5/8; the “number of surviving mice divided by the number of test mice, Day 6” value (“number of surviving mice divided … Day 6” for short) is given as 8/8. Besides, in test [2], the “influenza infection therapeutic effects compared with Compound A” value is “superior to those of Compound A” and the “number of surviving mice divided by the number of test mice, Day 8” value (from here on “number of surviving mice divided … Day 8”) is given as 4/12.
By IC50 is commonly meant the concentration needed to halve the response being measured. As to `CO[C@@H]([C@@H]1OC(C(=O)O)=C[C@H](N=C(N)N)[C@H]1NC(C)=O)[C@H](O)CO` [Example 28, 5-Acetamido-4-guanidino-2,3,4,5,7-pentadeoxy-7-methoxy-D-glycero-D-galacto-non-2-enopyranosoic acid trifluoroacetic acid salt], the IC50 in test [3] (read-out: IC50) came out at 1.7 nM.
As for `CCCCCCCCCC(=O)OCC(O)C(O)[C@@H]1OC(C(=O)O)=CC(NC(=N)N)C1NC(C)=O.O=C(O)C(F)(F)F` (stereo partly drawn) [Example 6′, 5-Acetamido-2,3,4,5-tetradeoxy-4-guanidino-9-O-decanoyl-D-glycero-D-galacto-non-2-enopyranosoic acid trifluoroacetic acid salt], in test [4], the “number of surviving mice divided … Day 6” value was 11/11 and the “number of surviving mice divided … Day 8” value is 10/11.
Regarding `CCCCCCCCCCCC(=O)OCC(O)C(O)[C@@H]1OC(C(=O)O)=CC(NC(=N)N)C1NC(C)=O.O=C(O)C(F)(F)F` (stereo partly drawn) [Example 8′, 5-Acetamido-2,3,4,5-tetradeoxy-4-guanidino-9-O-dodecanoyl-D-glycero-D-galacto-non-2-enopyranosoic acid trifluoroacetic acid salt], in test [4], the “number of surviving mice divided … Day 6” value was 11/11 and the “number of surviving mice divided … Day 8” value is on record as 2/11.
The matching figures for `CCCCCC(=O)OCC(O)C(O)[C@@H]1OC(C(=O)O)=CC(NC(=N)N)C1NC(C)=O.O=C(O)C(F)(F)F` (stereo partly drawn) [Example 4′, 5-Acetamido-2,3,4,5-tetradeoxy-4-guanidino-9-O-hexanoyl-D-glycero-D-galacto-non-2-enopyranosoic acid trifluoroacetic acid salt]: 10/10 and 6/10.
Take `CCCCCCCCCCCCCCCCCC(=O)OCC(O)C(O)[C@@H]1OC(C(=O)O)=CC(NC(=N)N)C1NC(C)=O.O=C(O)C(F)(F)F` (stereo partly drawn) [Example 9′, 5-Acetamido-2,3,4,5-tetradeoxy-4-guanidino-9-O-octadecanoyl-D-glycero-D-galacto-non-2-enopyranosoic acid trifluoroacetic acid salt]: in test [4], the “number of surviving mice divided … Day 6” value is reported as 10/10 and the “number of surviving mice divided … Day 8” value is 4/10.
In the case of `CCCCCCCCCCCCCCCCOC(=O)C1=CC(NC(=N)N)C(NC(C)=O)[C@H](C(O)C(O)CO)O1.O=C(O)C(F)(F)F` (stereo partly drawn) [Example 10′, Cetyl 5-acetamido-2,3,4,5-tetradeoxy-4-guanidino-D-glycero-D-galacto-non-2-enopyranosoate trifluoroacetic acid salt], in test [2], the “influenza infection therapeutic effects compared with Compound A” value is “superior to those of Compound A” and the “number of surviving mice divided … Day 8” value was 10/12.
As for `CC(=O)NC1C(NC(=N)N)C=C(C(=O)O)O[C@H]1C(O)C(O)CO` (stereo partly drawn) [Compound A, reference compound], the IC50 in test [3] (unidentified influenza virus, H1N1, MDCK, 40 h, Table 3, plaque number reduced to 50%, MDCK cells) was determined as 4.7 nM; in test [3] (unidentified influenza virus, H1N1, MDCK, 40 h, Table 4, plaque number reduced to 50%, MDCK cells) it was 11 nM. In addition, the “number of surviving mice divided … Day 3” value in test [1] is reported as 3/7. The “number of surviving mice divided by the number of test mice, Day 10” value in test [1] and in test [2] was “dead” each time. Moreover, the “number of surviving mice divided … Day 8” value in test [4] was “one”.
As to `CCCCCCCCCCCCCCCC(=O)OCC(O)C(O)[C@@H]1OC(C(=O)O)=CC(NC(=N)N)C1NC(C)=O.O=C(O)C(F)(F)F` (stereo partly drawn) [Example 7′, 5-Acetamido-2,3,4,5-tetradeoxy-4-guanidino-9-O-palmitoyl-D-glycero-D-galacto-non-2-enopyranosoic acid trifluoroacetic acid salt], in test [4], the “number of surviving mice divided … Day 6” value was 10/10 and the “number of surviving mice divided … Day 8” value is given as 3/10.
As to `CCCCCCCC(=O)OCC(O)C(O)[C@@H]1OC(C(=O)O)=CC(NC(=N)N)C1NC(C)=O.O=C(O)C(F)(F)F` (stereo partly drawn) [Example 5′, 5-Acetamido-2,3,4,5-tetradeoxy-4-guanidino-9-O-octanoyl-D-glycero-D-galacto-non-2-enopyranosoic acid trifluoroacetic acid salt], in test [4], the “number of surviving mice divided … Day 6” value was 11/11 and the “number of surviving mice divided … Day 8” value is 10/11.
For the compound `CCO[C@@H]([C@@H]1OC(C(=O)O)=C[C@H](N=C(N)N)[C@H]1NC(C)=O)[C@H](O)CO` [Example 30, 5-Acetamido-4-guanidino-2,3,4,5,7-pentadeoxy-7-ethoxy-D-glycero-D-galacto-non-2-enoic acid trifluoroacetic acid salt], the results for the IC50 in test [3] (read-out: IC50) and in test [5] were 0.8 nM and 7 nM, respectively.
For the compound `CCCCCCCCCCCCCCCCCCOC(=O)C1=CC(NC(=N)N)C(NC(C)=O)[C@H](C(O)C(O)CO)O1.O=C(O)C(F)(F)F` (stereo partly drawn) [Example 11′, Stearyl 5-acetamido-2,3,4,5-tetradeoxy-4-guanidino-D-glycero-D-galacto-non-2-enopyranosoate trifluoroacetic acid salt], in test [2], the “influenza infection therapeutic effects compared with Compound A” value is listed as “superior to those of Compound A” and the “number of surviving mice divided … Day 8” value is 11/11.
With `CCCCCCCCCCCCCC(=O)OCC(O)C(O)[C@@H]1OC(C(=O)O)=CC(NC(=N)N)C1NC(C)=O.O=C(O)C(F)(F)F` (stereo partly drawn) [Example 3′, 5-Acetamido-2,3,4,5-tetradeoxy-4-guanidino-9-O-myristoyl-D-glvcero-D-galacto-non-2-enopyranosoic acid trifluoroacetic acid salt], in test [4], the “number of surviving mice divided … Day 6” value is recorded as 10/10 and the “number of surviving mice divided … Day 8” value was 10/10.
`CCCCCCOC(=O)C1=CC(NC(=N)N)C(NC(C)=O)[C@H](C(O)C(O)CO)O1.O=C(O)C(F)(F)F` (stereo partly drawn) [Example 2′, Hexyl 5-acetamido-2,3,4,5-tetradeoxy-4-guanidino-D-glycero-D-galacto-non-2-enopyranosoate trifluoroacetic acid salt]: in test [1], the “influenza infection therapeutic effects compared with Compound A” value was “superior to those of Compound A”; the “number of surviving mice divided … Day 3” value is 2/8; the “number of surviving mice divided … Day 6” value is reported as 8/8. Besides, in test [1] (trifluoroacetic acid salt), the “number of surviving mice divided by the number of test mice, Day 10” value is 1 and 1/8.
